Results: PubChem BioAssay (NCI)
Several values for one entry are separate records, joined by “and”; a condition that tells them apart may be missing. Equal entries are not always repeated.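 Exposure lasted 48 hours, with cells grown in 96-well plates and compounds tested at five concentrations. GI50 is the concentration that inhibits growth by half. TGI is the concentration that stops growth completely.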

Columns and labels:
Assay in all cases: NCI-60 cell line screen, 48 h
COLO 205 colon = system: COLO 205 colon
HOP-92 NSCLC = system: HOP-92 NSCLC
IGROV1 ovarian = system: IGROV1 ovarian
MDA-MB-435 = system: MDA-MB-435
NCI-H226 lung = system: NCI-H226 lung
NCI-H23 lung = system: NCI-H23 lung
NCI-H460 lung = system: NCI-H460 lung
OVCAR-3 ovarian = system: OVCAR-3 ovarian
RPMI-8226 leukemia = system: RPMI-8226 leukemia
RXF 393 renal = system: RXF 393 renal

| Structure (SMILES) | GI50 (COLO 205 colon) | TGI (COLO 205 colon) | GI50 (HOP-92 NSCLC) [µM] | TGI (HOP-92 NSCLC) [µM] | GI50 (IGROV1 ovarian) | TGI (IGROV1 ovarian) [µM] | GI50 (MDA-MB-435) | TGI (MDA-MB-435) | GI50 (NCI-H226 lung) | TGI (NCI-H226 lung) | GI50 (NCI-H23 lung) | TGI (NCI-H23 lung) | GI50 (NCI-H460 lung) | TGI (NCI-H460 lung) [µM] | GI50 (OVCAR-3 ovarian) | TGI (OVCAR-3 ovarian) | GI50 (RPMI-8226 leukemia) | TGI (RPMI-8226 leukemia) [µM] | GI50 (RXF 393 renal) | TGI (RXF 393 renal) |
| --- | --- | --- | --- | --- | --- | --- | --- | --- | --- | --- | --- | --- | --- | --- | --- | --- | --- | --- | --- | --- |
| COc1ccc(-c2nn(-c3cccc(Cl)c3)cc2-c2c(C#N)c(=O)n3[nH]c(-c4ccc(C)cc4)nc3c2C#N)cc1 | 2.32 µM | 8.15 µM | 0.723 | 4.88 | 3.51 µM | 11.3 | 1.48 µM | 7.9 µM | 2.39 µM | 9.62 µM | 3.18 µM | 10.6 µM | 1.85 µM | 8.31 | 6.52 µM | 13.7 µM | 4.57 µM | 33 | 0.858 µM | 2.48 µM |
| Cc1cccc(Cl)c1NC(=O)c1cnc(Nc2cc(N3CCOCC3)cc(N3CCOCC3)c2)s1 | 0.122 µM | > 8.09 µM | 0.00255 | 0.031 | 0.00355 µM | 0.0621 | 4.08 µM | > 10 µM | 0.601 µM | > 10 µM | > 9.24 µM | > 10 µM | > 5.16 µM | > 10 | 0.0644 µM | > 10 µM | > 6.24 µM | > 10 | 0.0123 µM | 0.153 µM |
| CC(C)[NH-].CC(C)[NH-].O.O.[Cl][Pt+2][Cl] | 30.1 µM | 98.7 µM | 22.3 | 70.8 | 33.4 µM | 132 | 26 µM | 76.2 µM | 66 µM | 259 µM | 30.8 µM | 183 µM | 8.8 µM | 62.3 | 21.1 µM | 59.1 µM | 38.1 µM | 281 | 26.6 µM | 137 µM |
| Cn1c(/C=C(\C#N)c2cccc(C(F)(F)F)c2)nc2c(N3CCOCC3)nc(Cl)nc21 | 1.12 µM | 2.67 µM | 0.342 | 1.89 | 0.556 µM | 1.89 | 1.02 µM | 2.43 µM | 1.36 µM | 3.18 µM | 1.49 µM | 3.18 µM | 1.67 µM | 3.61 | 0.665 µM | 1.87 µM | 0.252 µM | 0.802 | 0.613 µM | 1.93 µM |
| COc1ccc2nc3cc([N+](=O)[O-])ccc3c(NCCCN(CCO)CCO)c2c1 | 2.64 µM | 9.12 µM | 4.31 | 11.2 | 2.51 µM | 7.13 | 2.27 µM | 5.67 µM | 8.1 µM | 21.5 µM | 6.43 µM | 14.2 µM | 2.18 µM | 8.75 | 5.53 µM | 12.3 µM | 2.28 µM | 8.9 | 2.93 µM | 11.5 µM |
| N#Cc1ccc(C2C3=C(CCCC3=O)OC3=C2C(=O)c2ccccc2C3=O)cc1 (stereo not given) | 1.86 µM | 3.63 µM | 1.27 | 3.59 | 1.45 µM | 3.46 | 0.216 µM | 0.444 µM | 2.02 µM | 4.62 µM | 1.25 µM | 5.03 µM | 3.64 µM | 13.3 | 0.27 µM | 0.711 µM | 2.3 µM | 7.12 | 1.86 µM | 3.59 µM |
| O=C1c2cc(-c3ccccc3)ccc2-c2c1c1ccc([N+](=O)[O-])cc1c(=O)n2CCCBr | > 50 µM | > 50 µM | 17.8 | > 50 | > 50 µM | > 50 | > 50 µM | > 50 µM | > 47.4 µM | > 50 µM | > 50 µM | > 50 µM | > 50 µM | > 50 | > 50 µM | > 50 µM | > 32.8 µM | > 50 | > 26.3 µM | > 43.7 µM |
| COc1cc(F)cc([C@@H](CO)NC(=O)[C@@H](C)N2Cc3ccc(-c4nc(NC5CCOCC5)ncc4Cl)cc3C2=O)c1 | < 0.01 µM | 2.37 µM | 0.0321 | 0.26 | 0.0409 µM | 35.6 | 0.0347 µM | 31.8 µM | 1.3 µM | 33.2 µM | < 0.0133 µM | 20.2 µM | 6.14 µM | > 100 | 16.5 µM | > 68.6 µM | 1.83 µM | 38.1 | 0.205 µM | 19.8 µM |
| COc1ccc(-c2cn(-c3cccc(C(=O)/C=C/c4ccc(O)c(OC)c4)c3)c(=O)[nH]2)cc1 | 4.79 µM | 15.3 µM | 2.61 | 20.5 | 3.58 µM | 18.2 | 3.19 µM | > 62.2 µM | 5.25 µM | > 59.5 µM | 3.57 µM | 25.2 µM | 3.21 µM | 10.4 | 2.48 µM | 7.37 µM | 1.35 µM | 3.68 | 5.85 µM | 28.6 µM |
| O=CC(Br)C(Br)c1ccccc1 (stereo not given) | 2.17 µM | 4.55 µM | 1.52 | 2.89 | 11 µM | 26 | 1.74 µM | 3.63 µM | 6.8 µM | 18.7 µM | 3.85 µM | 24.8 µM | 14.5 µM | 31.2 | 1.32 µM | 2.67 µM | 2.14 µM | 5.39 | 1.82 µM | 3.78 µM |
| Cc1ccc(C(=O)/C(=C\c2ccc([N+](=O)[O-])cc2)S(=O)Cc2ccc(F)cc2)cc1 (stereo not given) | 1.92 µM | 3.76 µM | 1.93 | 3.87 | 1.5 µM | 3.05 | 1.76 µM | 3.65 µM | 3.48 µM | 13.1 µM | 1.69 µM | 3.36 µM | 1.89 µM | 3.85 | 1.57 µM | 2.96 µM | 1.02 µM | 4.33 | 1.78 µM | 3.28 µM |
| CN1CCC(C(=O)Nc2n[nH]c3nc(-c4ccc(O)cc4)c(Br)cc23)CC1 | 1 µM and 1.3 µM | 3.7 µM and 3.04 µM | 0.97 | 5.04 | 5.13 µM and 6.36 µM | > 25 | 1.57 µM and 1.45 µM | 5.58 µM and 5.61 µM | 0.674 µM and 1.06 µM | 8.55 µM and > 15.5 µM | 4.19 µM and 6.88 µM | 16.1 µM and > 25 µM | 1.97 µM and 1.1 µM | > 25 | 0.815 µM and 0.504 µM | > 11.6 µM and 1.44 µM | 9.78 µM and 24.4 µM | > 25 | 0.442 µM and 0.485 µM | 1.4 µM and 1.6 µM |
